These results are taken from patent US10954221B2, “GLP-1R agonists and uses thereof” (QILU REGOR THERAPEUTICS INC., priority 2019, dated 2021).

For orientation: EC50 means the concentration needed to bring the measured effect to its halfway point.

Experiment [1] deals with T1, GLP1R (Homo sapiens, UniProt P43220). On the set-up: Emax: dose or concentration left out as unconfirmed. To be noted: for β-arrestin recruitment Bmax (%): partial maximum relative effect at the highest concentration tested (top 10 μM), relative to Bmax of GLP-1 (7-37), PathHunter CHO-K1 GLP1R β-Arrestin cells; for Emax: CHO-K1, […], read-out: β-arrestin recruitment Bmax (%).
Target sequence in this assay (P43220 24-463): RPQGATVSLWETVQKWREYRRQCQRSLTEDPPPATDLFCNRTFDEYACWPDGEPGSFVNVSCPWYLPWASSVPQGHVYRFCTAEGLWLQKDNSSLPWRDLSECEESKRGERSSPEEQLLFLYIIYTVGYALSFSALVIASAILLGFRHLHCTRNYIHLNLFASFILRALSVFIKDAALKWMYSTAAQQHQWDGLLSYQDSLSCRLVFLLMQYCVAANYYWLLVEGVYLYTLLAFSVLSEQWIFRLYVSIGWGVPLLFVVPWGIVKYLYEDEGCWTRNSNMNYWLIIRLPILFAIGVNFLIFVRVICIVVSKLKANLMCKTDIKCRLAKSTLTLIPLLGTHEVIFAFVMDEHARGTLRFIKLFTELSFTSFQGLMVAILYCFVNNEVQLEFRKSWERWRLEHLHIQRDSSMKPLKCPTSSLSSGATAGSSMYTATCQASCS
Target sequence in this assay (P32121 whole entry partner): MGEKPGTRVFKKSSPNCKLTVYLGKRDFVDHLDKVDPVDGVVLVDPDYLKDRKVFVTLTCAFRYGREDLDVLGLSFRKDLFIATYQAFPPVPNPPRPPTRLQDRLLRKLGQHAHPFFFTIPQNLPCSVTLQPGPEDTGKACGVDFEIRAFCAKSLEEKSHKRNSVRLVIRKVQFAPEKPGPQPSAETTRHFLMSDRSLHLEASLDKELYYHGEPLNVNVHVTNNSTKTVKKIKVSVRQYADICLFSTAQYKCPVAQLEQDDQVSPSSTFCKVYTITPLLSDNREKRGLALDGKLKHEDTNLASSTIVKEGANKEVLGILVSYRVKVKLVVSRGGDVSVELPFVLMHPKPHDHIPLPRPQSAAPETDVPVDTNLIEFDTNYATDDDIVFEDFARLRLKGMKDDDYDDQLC

The target in experiment [2] is T1, GLP1R. Description: GLP1R cAMP assay (HTRF), HEK293/GLP-1R/CRE/Luc, Clone 4. In general terms: Cyclic AMP is a second messenger, typically raised through Gs and lowered through Gi signalling.
Target sequence in this assay (P43220 24-463): as the sequence (P43220 24-463) above
Experiment [3] concerns the target T1, GLP1R. Kind of experiment: β-Arrestin-mediated GLP1R internalization assay (PathHunter U2OS cells). To be noted: averaged Bmax where applicable, Percentage of Control GLP-1 (7-37), top 10 μM, 180 min. It counts as cell-based. On the set-up: host or cells: PathHunter engineered U2OS cells. The source says:
A similar assay can also be used to assess the extent of signal attenuation due to GLP-1R internalization (the Internalization Assay). In this assay, activated GLP1R Internalization cells were engineered to co-express an untagged GLP1R, Enzyme Acceptor (EA) tagged β-Arrestin, and a ProLink™ (PK) tag localized to the endosomes. Activation of the GLP1R induces β-Arrestin recruitment, which leads to internalization of the Receptor/Arrestin-EA complex in PK-tagged endosomes. This forces complementation of the two β-galactosidase enzyme fragments (EA and PK) to form a functional enzyme that hydrolyzes substrate to generate a chemiluminescent signal.
Frozen cells were quickly thawed and 10 mL of cell plating medium (provided by the kit) was added to thawed cells. Cells were stored in a 37° C. incubator and kept for approximately 48 hours until ready for the assay.
Reference and test compounds were dissolved in 100% DMSO. […] 5 μL of this solution was added to 20 μL cell medium in assay plate for a final top concentration of 10 μM. Plates were incubated at 37° C. for 180 min.
Following 180 min incubation, detection reagents were made up by combining 1 part Galacton Star Substrate with 5 parts Emerald II™ Solution, and 19 parts of PathHunter Cell Assay Buffer, respectively. 12.5 μL detection reagent was added to each well. The plates were then incubated at room temperature for 60 min. Plates were then read on Envision for 0.1 sec/well.
EC50 determinations were made from agonist dose-response curves analyzed with a curve fitting program using a 4-parameter logistic dose response equation.
Target sequence in this assay (P43220 24-463): as above
Target sequence in this assay (P32121 whole entry partner): as the sequence (P32121 whole entry partner) above

Regarding `O=C(O)c1ccc2nc(Cc3ccc(-c4cccc(OCc5ccc(Cl)cc5F)n4)c(F)c3)n(C[C@@H]3CCO3)c2c1` [Compound 74, (S)-2-(4-(6-((4-chloro-2-fluorobenzyl)oxy)pyridin-2-yl)-3-fluorobenzyl)-1-(oxetan-2-ylmethyl)-1H-benzo[d]imidazole-6-carboxylic acid], the “β-arrestin recruitment Bmax (%)” value on GLP1R [1] is recorded as 32.1%. The concentration giving a half-maximal response (EC50) on GLP1R [2] was < 15 nM. Further, the “β-arrestin internalization Bmax (POC)” value on GLP1R [3] is recorded as 17.0 POC.
On to `N#Cc1ccc(COc2cccc(-c3ccc(Cc4nc5ccc(C(=O)O)cc5n4C[C@@H]4CCO4)cc3F)n2)c(F)c1` [Compound 75, (S)-2-(4-(6-(4-cyano-2-fluorobenzyloxy)pyridin-2-yl)-3-fluorobenzyl)-1-(oxetan-2-ylmethyl)-1H-benzo[d]imidazole-6-carboxylic acid], for which, on GLP1R [1], the Emax stood at 30.4 ± 1.15%. In addition, the EC50 at GLP1R [2] was < 15 nM. In addition, the “β-arrestin internalization Bmax (POC)” value on GLP1R [3] was determined as 20.8 ± 10.2 POC.
As to `O=C(O)c1ccc2nc(Cc3ccc(-c4cccc(OCc5ccc(Cl)cc5F)c4)c(F)c3)n(C[C@@H]3CCO3)c2c1` [Compound 76, (S)-2-((3′-((4-chloro-2-fluorobenzyl)oxy)-2-fluoro-[1,1′-biphenyl]-4-yl)methyl)-1-(oxetan-2-ylmethyl)-1H-benzo[d]imidazole-6-carboxylic acid], the Emax on GLP1R [1] was 25.1%. Besides, the 50% effective concentration (EC50) on GLP1R [2] was < 15 nM. The “β-arrestin internalization Bmax (POC)” value on GLP1R [3] is 21.6 POC.
For the molecule `O=C(O)c1ccc2nc(Cc3ccc(-c4nc(OCc5ccc(Cl)cc5F)c(F)cc4F)c(F)c3)n(C[C@@H]3CCO3)c2c1` [Compound 77, (S)-2-(4-(6-((4-chloro-2-fluorobenzyl)oxy)-3,5-difluoropyridin-2-yl)-3-fluorobenzyl)-1-(oxetan-2-ylmethyl)-1H-benzo[d]imidazole-6-carboxylic acid], on GLP1R [1], the Emax amounted to 39.4%. In addition, the EC50 on GLP1R [2] was < 15 nM. Further, the “β-arrestin internalization Bmax (POC)” value on GLP1R [3] is recorded as 22.5 POC.
On to `O=C(O)c1ccc2nc(Cc3ccc(-c4ccc(F)c(OCc5ccc(Cl)cc5F)c4)c(F)c3)n(C[C@@H]3CCO3)c2c1` [Compound 78, (S)-2-((3′-((4-chloro-2-fluorobenzyl)oxy)-2,4′-difluoro-[1,1′-biphenyl]-4-yl)methyl)-1-(oxetan-2-ylmethyl)-1H-benzo[d]imidazole-6-carboxylic acid], for which the Emax on GLP1R [1] is 22.7%. The EC50 at GLP1R [2] is < 15 nM. The “β-arrestin internalization Bmax (POC)” value on GLP1R [3] came to 7.49 POC.
Take `O=C(O)c1ccc2nc(Cc3ccc(-c4cc(OCc5ccc(Cl)cc5F)ccc4F)c(F)c3)n(C[C@@H]3CCO3)c2c1` [Compound 79, (S)-2-((5′-((4-chloro-2-fluorobenzyl)oxy)-2,2′-difluoro-[1,1′-biphenyl]-4-yl)methyl)-1-(oxetan-2-ylmethyl)-1H-benzo[d]imidazole-6-carboxylic acid]: the Emax at GLP1R [1] is 19.7%. Besides, the 50% effective concentration (EC50) on GLP1R [2] lay within 15 to 150 nM. Further, on GLP1R [3], the “β-arrestin internalization Bmax (POC)” value is recorded as 9.25 POC.
In the case of `O=C(O)c1ccc2nc(Cc3ccc(-c4ccnc(OCc5ccc(Cl)cc5F)n4)c(F)c3)n(C[C@@H]3CCO3)c2c1` [Compound 80, (S)-2-(4-(2-((4-chloro-2-fluorobenzyl)oxy)pyrimidin-4-yl)-3-fluorobenzyl)-1-(oxetan-2-ylmethyl)-1H-benzo[d]imidazole-6-carboxylic acid], the Emax on GLP1R [1] was found to be 31.6%. Further, at GLP1R [2], the EC50 is < 15 nM. Further, on GLP1R [3], the “β-arrestin internalization Bmax (POC)” value was found to be 21.2 POC.
For the molecule `O=C(O)c1ccc2nc(Cc3ccc(-c4ncc(F)c(OCc5ccc(Cl)cc5F)n4)c(F)c3)n(C[C@@H]3CCO3)c2c1` [Compound 81, (S)-2-(4-(4-(4-chloro-2-fluorobenzyloxy)-5-fluoropyrimidin-2-yl)-3-fluorobenzyl)-1-(oxetan-2-ylmethyl)-1H-benzo[d]imidazole-6-carboxylic acid], the Emax at GLP1R [1] was found to be 37.2%. Further, at GLP1R [2], the EC50 is < 15 nM. In addition, the “β-arrestin internalization Bmax (POC)” value at GLP1R [3] stood at 30.6 POC.
On to `O=C(O)c1ccc2nc(CN3CC=C(c4csc(OCc5ccc(Cl)cc5F)n4)CC3)n(C[C@@H]3CCO3)c2c1` [Compound 247, (S)-2-((4-(2-((4-chloro-2-fluorobenzyl)oxy)thiazol-4-yl)-3,6-dihydropyridin-1(2H)-yl)methyl)-1-(oxetan-2-ylmethyl)-1H-benzo[d]imidazole-6-carboxylic acid], for which the concentration for a half-maximal effect (EC50) on GLP1R [2] is < 15 nM. The “β-arrestin internalization Bmax (POC)” value at GLP1R [3] is listed as 26.6 POC.
Regarding `N#Cc1ccc(COc2nc(-c3ccc(Cc4nc5ccc(C(=O)O)nc5n4C[C@@H]4CCO4)c(F)c3)ccc2F)c(F)c1` [Compound 284, (S)-2-(4-(6-(4-cyano-2-fluorobenzyloxy)-5-fluoropyridin-2-yl)-2-fluorobenzyl)-3-(oxetan-2-ylmethyl)-3H-imidazo[4,5-b]pyridine-5-carboxylic acid], the Emax at GLP1R [1] stood at 25.5%. For the same molecule, the EC50 on GLP1R [2] was < 15 nM.
Regarding `O=C(O)c1ccc2nc(Cc3ccc(-c4ncc(F)c(OCc5ccc(F)cc5F)n4)cc3F)n(C[C@@H]3CCO3)c2n1` [Compound 285, (S)-2-(4-(4-((2,4-difluorobenzyl)oxy)-5-fluoropyrimidin-2-yl)-2-fluorobenzyl)-3-(oxetan-2-ylmethyl)-3H-imidazo[4,5-b]pyridine-5-carboxylic acid], the Emax on GLP1R [1] is 24%. For the same molecule, the EC50 on GLP1R [2] was < 15 nM.
With `N#Cc1ccc(COc2nc(-c3ccc(Cc4nc5ccc(C(=O)O)nc5n4C[C@@H]4CCO4)cc3F)ccc2F)c(F)c1` [Compound 289, (S)-2-(4-(6-((4-cyano-2-fluorobenzyl)oxy)-5-fluoropyridin-2-yl)-3-fluorobenzyl)-3-(oxetan-2-ylmethyl)-3H-imidazo[4,5-b]pyridine-5-carboxylic acid], the Emax on GLP1R [1] is 29.6%. Further, the EC50 at GLP1R [2] is < 15 nM.
As to `N#Cc1ccc(COc2cccc(-c3ccc(Cc4nc5ccc(C(=O)O)nc5n4C[C@@H]4CCO4)cc3F)n2)c(F)c1` [Compound 293, (S)-2-(4-(6-((4-cyano-2-fluorobenzyl)oxy)pyridin-2-yl)-3-fluorobenzyl)-3-(oxetan-2-ylmethyl)-3H-imidazo[4,5-b]pyridine-5-carboxylic acid], on GLP1R [1], the Emax was determined as 32%. For the same molecule, the EC50 on GLP1R [2] was < 15 nM.
On the same counts, the results for `O=C(O)c1ccc2nc(Cc3ccc(-c4ccc(F)c(OCc5ccc(Cl)cc5F)n4)c(F)c3)n(C[C@@H]3CCO3)c2n1` [Compound 305, (S)-2-(4-(6-((4-chloro-2-fluorobenzyl)oxy)-5-fluoropyridin-2-yl)-3-fluorobenzyl)-3-(oxetan-2-ylmethyl)-3H-imidazo[4,5-b]pyridine-5-carboxylic acid] are 31.8% and < 15 nM.
Consider `O=C(O)c1ccc2nc(Cn3ccc(-c4cccc(OCc5ccc(Cl)cc5F)n4)cc3=O)n(C[C@@H]3CCO3)c2c1` [Compound 323, (S)-2-((6-((4-chloro-2-fluorobenzyl)oxy)-2′-oxo-[2,4′-bipyridin]-1′(2′H)-yl)methyl)-1-(oxetan-2-ylmethyl)-1H-benzo[d]imidazole-6-carboxylic acid], for which, on GLP1R [1], the “β-arrestin recruitment Bmax (%)” value came out at 19.4%. Further, the EC50 on GLP1R [2] is < 15 nM.
For the molecule `O=C(O)c1ccc2nc(CN3CC=C(c4scnc4OCc4ccc(Cl)cc4F)CC3)n(C[C@@H]3CCO3)c2c1` [Compound 331, (S)-2-((4-(4-((4-chloro-2-fluorobenzyl)oxy)thiazol-5-yl)-3,6-dihydropyridin-1(2H)-yl)methyl)-1-(oxetan-2-ylmethyl)-1H-benzo[d]imidazole-6-carboxylic acid], the Emax at GLP1R [1] worked out at 17.9%. Further, the EC50 on GLP1R [2] is < 15 nM.
For `O=C(O)c1ccc2nc(CN3CC=C(c4csnc4OCc4ccc(Cl)cc4F)CC3)n(C[C@@H]3CCO3)c2c1` [Compound 332, (S)-2-((4-(3-(4-chloro-2-fluorobenzyloxy)isothiazol-4-yl)-5,6-dihydropyridin-(2H)-yl)methyl)-1-(oxetan-2-ylmethyl)-1H-benzo[d]imidazole-6-carboxylic acid], on GLP1R [1], the Emax was found to be 14.5%. Moreover, at GLP1R [2], the EC50 is < 15 nM.
In the case of `N#Cc1ccc(COc2ncccc2C2=CCN(Cc3nc4ccc(C(=O)O)cc4n3C[C@@H]3CCO3)CC2)c(F)c1` [Compound 333, (S)-2-((4-(2-(4-cyano-2-fluorobenzyloxy)pyridin-3-yl)-5,6-dihydropyridin-1(2H)-yl)methyl)-1-(oxetan-2-ylmethyl)-1H-benzo[d]imidazole-6-carboxylic acid], the Emax on GLP1R [1] was 9.75%. This molecule yielded a half-maximal effective concentration (EC50) at GLP1R [2] of 15 to 150 nM.
Take `CC1(c2ccc(C#N)cc2F)Oc2cccc(C3=CCN(Cc4nc5ccc(C(=O)O)cc5n4C[C@@H]4CCO4)CC3)c2O1` (stereo partly drawn) [Compound 334, 2-((4-(2-(4-cyano-2-fluorophenyl)-2-methylbenzo[d][1,3]dioxol-4-yl)-3,6-dihydropyridin-1(2H)-yl)methyl)-1-(((S)-oxetan-2-yl)methyl)-1H-benzo[d]imidazole-6-carboxylic acid]: the Emax at GLP1R [1] turned out to be 26.6%. The concentration giving a half-maximal response (EC50) at GLP1R [2] was < 15 nM.
